The source of these data is patent US4766127A, “2-(3-pyridylmethyl)naphthalene-6-carboxylic acid as a thromboxane synthetase inhibitor” (Syntex (U.S.A.) Inc., priority 1987, dated 1988).

Values joined by “and” are separate entries in the source; they are usually repeats but may differ in a detail not shown here. Equal values may be shown once.

Experiment [1] relates to prostacyclin. The note with it: background statement; PGH2 diversion to PGI2 when TxA2 synthesis is blocked; cited from earlier work.
In experiment [2] the target is T1, Thromboxane Synthetase (Homo sapiens, UniProt P24557).
T1 construct: Human platelet-rich plasma preparation; endogenous in cells; host or cells: human platelets in citrated platelet-rich plasma
T1 sequence (P24557 1-533): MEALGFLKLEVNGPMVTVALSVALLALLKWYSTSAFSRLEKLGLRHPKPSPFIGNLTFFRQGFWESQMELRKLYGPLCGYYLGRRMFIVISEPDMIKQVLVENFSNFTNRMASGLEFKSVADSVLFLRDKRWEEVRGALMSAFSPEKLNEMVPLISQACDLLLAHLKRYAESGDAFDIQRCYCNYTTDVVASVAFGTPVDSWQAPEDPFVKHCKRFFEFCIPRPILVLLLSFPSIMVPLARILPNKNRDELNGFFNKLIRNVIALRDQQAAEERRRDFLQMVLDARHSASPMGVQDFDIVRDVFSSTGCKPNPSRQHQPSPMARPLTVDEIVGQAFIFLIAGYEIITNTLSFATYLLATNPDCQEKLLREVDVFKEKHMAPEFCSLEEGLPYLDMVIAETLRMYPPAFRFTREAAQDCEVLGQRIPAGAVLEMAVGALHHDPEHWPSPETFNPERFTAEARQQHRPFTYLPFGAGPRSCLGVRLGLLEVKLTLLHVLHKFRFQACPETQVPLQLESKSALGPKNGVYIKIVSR
As to the kind of experiment: Inhibition of ADP-induced human platelet aggregation (PRP + pig aortic microsomes) as measure of thromboxane synthetase inhibition. In kind it is cell-based. As to the method: Platelet Aggregation Inhibition
Comparison of 2-(3-pyridylmethyl)naphthalene-6-carboxylic acid and 2-(3-pyridylmethyl)naphthalene-7-carboxylic acid.
Platelet Aggregation Inducer: ADP
Determination of Inhibition and Thromboxane Synthetase Activity Utilizing Human Platelet Aggregation
Human platelet-rich plasma preparation:
Blood sample is collected into siliconized vacutainers containing sodium citrate (0.5 ml of 11.25% sodium citrate per 15 ml vacutainer) final concentration 0.38%. Platelet rich plasma (PRP) is obtained after centrifuging the blood for 15 minutes at 200 xg at room temperature. Blood and plasma contacts only non-wettable plastic or siliconized glass surfaces. Procedure:
1. Aggregation is followed by the turbidimetric method of Born (J. Physiol. 162, 67p, 1962), using a Payton Dual Channel Aggregometer.
2. PRP-PAM control. 1.0 ml PRP is used. Pig aortic microsomes (PAM), prepared according to Neichi, et al. (Prostaglandins, 19(4), 577-86 (1980)), are incubated in PRP at 37° C. with stirring for 3 minutes, immediately followed by addition of inducer-ADP. The concentration of PAM is chosen to show little or no inhibition of platelet aggregation when compared with the aggregation of PRP alone.
3. PRP-PAM plus thromboxane synthetase inhibitor.
Thromboxane synthetase inhibitor is added to 1.0 ml PRP incubated at 37° C. with stirring for two minutes. The PAM concentration is chosen according to step 2, and is added to PRP incubated at 37° C. with stirring for another 3 minutes. The inducer ADP is added immediately afterwards.

Setting [3] is: 1 × 10^-4 M, inducer ADP 5×10^-6 M, solvent water.
Setting [4] is: 1.0 × 10^-7 M, inducer ADP 5×10^-6 M, solvent water.
[5] abbreviates: 2 × 10^-5 M, inducer ADP 5×10^-6 M, solvent water.
Setting [6] is: 5 × 10^-4 M, inducer ADP 5×10^-6 M, solvent water.
Where [7] appears, read: 5.0 × 10^-5 M, inducer ADP 5×10^-6 M, solvent water.
Setting [8] is: 5 × 10^-6 M, inducer ADP 5×10^-6 M, solvent water.
Setting [9] is: 5.0 × 10^-7 M, inducer ADP 5×10^-6 M, solvent water.

For `O=C(O)c1ccc(OCCn2ccnc2)cc1` [dazoxiben], in experiment [1], the “levels of prostacyclin produced” value is “quite low”.

What is called % Inhibition is the share of the control response that was lost under treatment. As usually defined, the inhibition is the percentage by which the read-out fell short of the control. With `O=C(O)c1ccc2cc(Cc3cccnc3)ccc2c1` [2-(3-pyridylmethyl)naphthalene-6-carboxylic acid], in experiment [2] (setting [3]), the “% Inhibition” value is listed as 85.2% and the inhibition at 100 µM amounted to 98.3%. Further, in experiment [2] (setting [4]), the “% Inhibition” value was 29.3 ± 3.7% and the inhibition at 0.1 µM amounted to 47 ± 5.2%. Further, the inhibition at 0.01 µM in experiment [2] (1.0 × 10^-8 M, inducer ADP 5×10^-6 M, solvent water) was found to be 4.7%. Besides, in experiment [2] (setting [5]), the “% Inhibition” value is 97.4 ± 1.3% and the inhibition at 20 µM was 90.9 ± 1.3%. Besides, the “% Inhibition” value in experiment [2] (2 × 10^-7 M, inducer ADP 5×10^-6 M, solvent water) was 58.7 ± 9.2% and 97.1 ± 1.9%. Further, the inhibition at 0.02 µM in experiment [2] (2.0 × 10^-8 M, inducer ADP 5×10^-6 M, solvent water) was 1.6%. For the same molecule, in experiment [2] (setting [6]), the “% Inhibition” value was 87.3% and the inhibition at 500 µM amounted to 96.6%. Further, in experiment [2] (setting [7]), the “% Inhibition” value is reported as 86.5 ± 2.2% and the inhibition at 50 µM worked out at 86.8 ± 1.8%. Also, in experiment [2] (setting [8]), the “% Inhibition” value was 100.0% and 85.1 ± 4.1% and 85.3 ± 5.5%; the inhibition at 5 µM is 88.7 ± 3.5%. In experiment [2] (setting [9]), the “% Inhibition” value is 75.8 ± 3.5% and the inhibition at 0.5 µM turned out to be 78.3%. The “greater activity as a thromboxane synthetase inhibitor by a factor” value in experiment [2] (factor relative to 2-(3-pyridylmethyl)-naphthalene-7-carboxylic acid) is given as “about 200”.

Usually IC50 stands for the concentration that gives 50% inhibition. For the molecule `O=C(O)c1ccc2ccc(Cc3cccnc3)cc2c1` [2-(3-pyridylmethyl)naphthalene-7-carboxylic acid, reference compound], the inhibition at 100 µM in experiment [2] (setting [3]) amounted to 88.8%. Further, in experiment [2] (setting [5]), the inhibition at 20 µM was 47.9%. The inhibition at 500 µM in experiment [2] (setting [6]) worked out at 92.8%. Also, in experiment [2] (setting [8]), the inhibition at 5 µM came out at 18.2%. Besides, the IC50 in experiment [2] (platelet aggregation inhibition, inducer ADP 5×10^-6 M, solvent water) was 21 µM.
